Where “and” joins values, the source holds several entries; their conditions need not be identical. Identical values can stand only once.
Test system: Huh-7 cells
Test: Metabolic disposition of [^14C]-Compound 1 and [^14C]-2′-C-methyl guanosine in Huh-7 cells (incubation medium, cellular extracts, nucleotide levels)
Assay type: in vitro ADME, human
Details: for 2′-C-methyl guanosine nucleotide levels in cellular extracts / Major metabolites observed in cellular extracts (% of total radioactivity) / AUC (area under the concentration-time curve) of Compound 7 levels: Huh7; for AUC (area under the concentration-time curve) of Compound 7 levels: 0-72 h
Procedure: Huh-7 cells: Confluent monolayers of Huh-7 cells were dispersed using trypsin-EDTA, rinsed and pelleted by centrifugation at 1,000 rpm (Beckman, Model Allegra 6R). Cells were resuspended at 0.2, 0.3 and 0.4×10^6 cells/mL of medium (DMEM supplemented with 1% pyruvate, 10% FBS, 0.5% penicillin-streptomycin, 1% L-glutamine, 1% non-essential amino acids and 22 mM HEPES). Multi-well collagen I-coated plates (rat tail collagen type I; 6-well) were then seeded by addition of 2.0 mL of cell suspension to achieve final cell density of 0.4, 0.6 and 0.8×10^6 cells/well and placed in an incubator at 37° C. overnight to allow cells to attach and acclimatize to culture and the medium. Duplicate plates were prepared with the same cell density for cell number determination at each time point.
Huh-7 incubations were conducted in a final volume of 2.0 mL Huh7 culture medium/well ([…]). Culture medium from overnight incubation of cells was removed and replaced with fresh culture medium, pre-warmed to 37° C. containing [^14C]-Compound 1 or [^14C]-2′-C-methyl guanosine as described above for primary hepatocytes. After 24, 48 and 72 hours, 0.5-1.0 mL of incubation medium was removed and stored at −20° C. until analysis (described below). The remaining medium was discarded and cell monolayers processed and extracted as described above.
Preliminary identification of putative metabolites was conducted by comparing the retention time of observed metabolites in incubation medium and cellular extracts with retention times obtained with chemically synthesized standards using the chromatography conditions described below. Further identification of 2′-C-methyl guanosine nucleotides (mono-, di- and triphosphate) was carried out by incubating cellular extract samples with alkaline phosphatase (10 units for 60 min at 37° C.) and comparing the HPLC retention times of the resulting nucleosides with that of authentic 2′-C-methyl guanosine.
Cellular extracts were prepared by centrifugation at 16,000 RCF using an Eppendorf microcentrifuge (Eppendorf, Model 5415D) for 10 min to remove cellular debris. An aliquot of 5-10 μL of the supernatant was added to 5 mL of EcoLite™ (MP, Irvine, Calif.) liquid scintillation cocktail and radioactivity measured by liquid scintillation counting (LSC) using a Beckman Coulter LS6500 multipurpose liquid scintillation counter (Beckman Instruments, Fullerton, Calif.). The remaining sample was then dried using a Labconco refrigerated centrivap concentrator (Labconco, Kansas City, Mo.). Dry extracts were reconstituted in 120 μL of HPLC-grade water and centrifuged at 16,000 RCF using an Eppendorf microcentrifuge for 10 min. Prior to HPLC analysis (described below), radioactivity of the concentrated extracts was measured by LSC using 5 μL aliquots. Extraction recovery was then determined by comparing total radioactivity in extracts before and after drying. The remaining extract was then analyzed by HPLC with online radioactivity detection using a Flow Scintillation Analyzer Radiomatic™ 515TR. Radioactivity in the separated components was quantified by integrating the peaks using Flo-One™ Software (Perkin Elmer Life Sciences). Samples with poor recovery (<85%) were re-analyzed when possible.
Incubation medium samples were thawed at room temperature, vortexed and centrifuged at 16,000 RCF using an Eppendorf microcentrifuge. An aliquot of 10 μL was added to 5 mL of EcoLite™ (MP, Irvine, Calif.) liquid scintillation cocktail and radioactivity measured by LSC using a Beckman Coulter LS6500 multipurpose liquid scintillation counter (Beckman Instruments, Fullerton, Calif.). Samples (50-100 μL) were then analyzed by HPLC (described below) with online radioactivity detection using a Flow Scintillation Analyzer Radiomatic™ 515TR. Radioactivity in the separated components was quantified by integrating the peaks using Flo-One™ Software (Perkin Elmer Life Sciences). Samples with poor recovery (<85%) were re-analyzed when possible. […]

[1] = 10 μM [^14C]-2′-C-methyl guanosine, 0 h, n = 1
[2] = 10 μM [^14C]-2′-C-methyl guanosine, 24 h
[3] = 10 μM [^14C]-2′-C-methyl guanosine, 24 h, n = 1
[4] = 10 μM [^14C]-2′-C-methyl guanosine, 48 h
[5] = 10 μM [^14C]-2′-C-methyl guanosine, 48 h, n = 1
[6] = 10 μM [^14C]-2′-C-methyl guanosine, 72 h
[7] = 10 μM [^14C]-2′-C-methyl guanosine, 72 h, n = 1
[8] = 10 μM [^14C]-Compound 1, 0 h, replicate 1 of n = 2
[9] = 10 μM [^14C]-Compound 1, 0 h, replicate 2 of n = 2
[10] = 10 μM [^14C]-Compound 1, 24 h, first series
[11] = 10 μM [^14C]-Compound 1, 24 h, replicate 1 of n = 2
[12] = 10 μM [^14C]-Compound 1, 24 h, replicate 2 of n = 2
[13] = 10 μM [^14C]-Compound 1, 24 h, second series
[14] = 10 μM [^14C]-Compound 1, 48 h, first series
[15] = 10 μM [^14C]-Compound 1, 48 h, replicate 1 of n = 2
[16] = 10 μM [^14C]-Compound 1, 48 h, replicate 2 of n = 2
[17] = 10 μM [^14C]-Compound 1, 48 h, second series
[18] = 10 μM [^14C]-Compound 1, 72 h, first series
[19] = 10 μM [^14C]-Compound 1, 72 h, replicate 1 of n = 2
[20] = 10 μM [^14C]-Compound 1, 72 h, replicate 2 of n = 2
[21] = 10 μM [^14C]-Compound 1, 72 h, second series

| SMILES | 2′-C-methyl guanosine nucleotide levels in cellular extracts [1] [pmol/million cells] | Major metabolites observed in cellular extracts (% of total radioactivity) [2] | 2′-C-methyl guanosine nucleotide levels in cellular extracts [3] | Major metabolites observed in cellular extracts (% of total radioactivity) [4] | 2′-C-methyl guanosine nucleotide levels in cellular extracts [5] | Major metabolites observed in cellular extracts (% of total radioactivity) [6] | 2′-C-methyl guanosine nucleotide levels in cellular extracts [7] | 2′-C-methyl guanosine nucleotide levels in cellular extracts [8] [pmol/million cells] | 2′-C-methyl guanosine nucleotide levels in cellular extracts [9] [pmol/million cells] | Major metabolites observed in cellular extracts (% of total radioactivity) [10] | 2′-C-methyl guanosine nucleotide levels in cellular extracts [11] | 2′-C-methyl guanosine nucleotide levels in cellular extracts [12] [pmol/million cells] | Major metabolites observed in cellular extracts (% of total radioactivity) [13] | Major metabolites observed in cellular extracts (% of total radioactivity) [14] | 2′-C-methyl guanosine nucleotide levels in cellular extracts [15] [pmol/million cells] | 2′-C-methyl guanosine nucleotide levels in cellular extracts [16] [pmol/million cells] | Major metabolites observed in cellular extracts (% of total radioactivity) [17] | Major metabolites observed in cellular extracts (% of total radioactivity) [18] | 2′-C-methyl guanosine nucleotide levels in cellular extracts [19] [pmol/million cells] | 2′-C-methyl guanosine nucleotide levels in cellular extracts [20] [pmol/million cells] | further results |
| --- | --- | --- | --- | --- | --- | --- | --- | --- | --- | --- | --- | --- | --- | --- | --- | --- | --- | --- | --- | --- | --- |
| C[C@@]1(O)[C@H](O)[C@@H](COP(=O)(O)O)O[C@H]1n1cnc2c(=O)[nH]c(N)nc21 [Compound 5, [(2R)-2-methyl-β-D-ribofuranosyl]guanine 5′-monophosphate] | 0 | BLD^a (BLD = below limit of detection (30 DPM)) | BLD^a (BLD = below limit of detection (0.02 pmol/million cells)) | BLD (BLD = below limit of detection (30 DPM)) | BLD (BLD = below limit of detection (0.02 pmol/million cells)) | BLD (BLD = below limit of detection (30 DPM)) | BLD (BLD = below limit of detection (0.02 pmol/million cells)) | 0 | 0 | BLD (BLD = below limit of detection (30 DPM)) | BLD^a (BLD = below limit of detection (0.02 pmol/million cells)) | 1.40 | 4.81 % of total radioactivity | 6.57 % of total radioactivity | 1.50 | 1.50 | 5.82 % of total radioactivity | 6.93 % of total radioactivity | 1.10 | 1.10 | Major metabolites observed in cellular extracts (% of total radioactivity) [21]: 5.74 % of total radioactivity; metabolites observed in medium (% of total radioactivity) (Huh7 cells (n=2), 10 μM [^14C]-Compound 1, 0 h): BLD; metabolites observed in medium (% of total radioactivity) (Huh7 cells (n=2), 10 μM [^14C]-Compound 1, 24 h): 2.0% and 3.2%; metabolites observed in medium (% of total radioactivity) (Huh7 cells (n=2), 10 μM [^14C]-Compound 1, 48 h): 0.8% and 1.5%; metabolites observed in medium (% of total radioactivity) (Huh7 cells (n=2), 10 μM [^14C]-Compound 1, 72 h): 0.7% and 1.0% |
| C[C@@]1(O)[C@H](O)[C@@H](COP(=O)(O)OP(=O)(O)OP(=O)(O)O)O[C@H]1n1cnc2c(=O)[nH]c(N)nc21 [Compound 7, [(2R)-2-methyl-β-D-ribofuranosyl]guanine 5′-triphosphate] | 0 | 10.5 % of total radioactivity | 3.10 pmol/million cells | 7.18 % of total radioactivity | 1.40 pmol/million cells | 10.4 % of total radioactivity | 1.60 pmol/million cells | 0 | 0 | 59.7 % of total radioactivity | 8.60 pmol/million cells | 21.3 | 71.8 % of total radioactivity | 71.5 % of total radioactivity | 16.1 | 15.2 | 59.3 % of total radioactivity | 72.1 % of total radioactivity | 11.1 | 13.3 | AUC (area under the concentration-time curve) of Compound 7 levels (10 μM [^14C]-2′-C-methyl guanosine, n = 1): 120 pmol * hr/million cells; AUC (area under the concentration-time curve) of Compound 7 levels (10 μM [^14C]-Compound 1, replicate 1 of n = 2): 726 pmol * hr/million cells; AUC (area under the concentration-time curve) of Compound 7 levels (10 μM [^14C]-Compound 1, replicate 2 of n = 2): 1,020 pmol * hr/million cells; Major metabolites observed in cellular extracts (% of total radioactivity) [21]: 69.6 % of total radioactivity; Compound 7 AUC0-72h (Huh7 cells (n=1), [^14C]-2′-C-methyl guanosine): 120 pmol*h/million cells; Compound 7 AUC0-72h (Huh7 cells (n=2), [^14C]-Compound 1): 873 pmol*h/million cells; Compound 7 maximum concentration (Huh7 cells, [^14C]-2′-C-methyl guanosine, at 24 hours): 3 pmol/million cells; Maximum Compound 7 levels (Huh7 cells, [^14C]-Compound 1, at 48 hours): 16 pmol/million cells; % of total radioactivity in cellular extracts (Huh7 cells, up to 72 hours after [^14C]-Compound 1 incubation): 83-93%; Levels of Compound 7 in Huh7 cells lower than in human hepatocytes ([^14C]-Compound 1): 88% |
